According to patent US7829563B2, “Aminoamides as orexin antagonists” (Hoffmann-La Roche Inc., priority 2007, dated 2010):
Structures can show the parent of a compound that is named as a salt.

Molecular target: T1, human orexin-2 (hOX2) receptors (Homo sapiens, UniProt O43614)
T1 construct: expressed in transfected cells
T1 sequence (O43614 1-444): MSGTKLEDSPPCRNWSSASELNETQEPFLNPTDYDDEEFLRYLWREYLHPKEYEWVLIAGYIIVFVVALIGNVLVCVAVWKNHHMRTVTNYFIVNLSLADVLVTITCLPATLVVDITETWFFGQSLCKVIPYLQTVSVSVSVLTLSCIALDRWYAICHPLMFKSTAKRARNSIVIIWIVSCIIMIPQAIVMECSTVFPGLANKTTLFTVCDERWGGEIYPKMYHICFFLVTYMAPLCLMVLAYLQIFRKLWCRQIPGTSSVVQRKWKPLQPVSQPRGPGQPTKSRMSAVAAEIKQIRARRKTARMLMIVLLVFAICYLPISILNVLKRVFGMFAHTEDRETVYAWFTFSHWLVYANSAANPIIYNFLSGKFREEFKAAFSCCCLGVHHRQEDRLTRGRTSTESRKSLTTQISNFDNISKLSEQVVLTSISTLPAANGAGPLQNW
Assay: Intracellular Ca2+ mobilization assay (FLIPR), antagonism of orexin-A
Format: cell-based
Conditions: CHO(dHFr−) cells stably expressing hOX2; orexin-A at EC80 as agonist; Kb=IC50/(1+[A]/EC50); read-out: Kb (μM) OX2R (human)
Procedure: R^7 and R^8 in scheme 5 are hydrogen, and the other substituents are as described above The compounds were investigated in accordance with the test given hereinafter. Intracellular Ca^2+ Mobilization Assay
The Chinese Hamster Ovary (dHFr−) mutant cell line stably expressing human orexin-1 (hOX1) or human orexin-2 (hOX2) receptors were maintained in Dulbecco's Modified Eagle Medium (1×) with GlutaMax™ 1, 4500 mg/L D-Glucose and Sodium Pyruvate (Catalog No. 31966-021, Invitrogen, Carlsbad, Calif.), 5% dialyzed fetal calf serum (Catalog No. 26400-044), 100 μg/ml penicillin and 100 μg/ml streptomycin. The cells were seeded at 5×10^4 cells/well in the poly-D-lysine treated, 96-well, black/clear-bottomed plates (Catalog No. BD356640, BD Biosciences, Palo Alto, Calif.). 24 h later, the cells were loaded for 1 h at 37° C. with 4 μM Flou-4 acetoxymethyl ester (Catalog No. F-14202, Molecular Probes, Eugene, Oreg.) in FLIPR buffer (1×HBSS, 20 mM HEPES, 2.5 mM Probenecid). Hanks' Balanced Salt Solution (HBSS) (10×) (catalog No. 14065-049) and HEPES (1M) (catalog No. 15630-056) were purchased from Invitrogen, Carlsbad, Calif. Probenecid (250 mM) (catalog No. P8761) was from Sigma, Buchs, Switzerland. The cells were washed five times with FLIPR buffer to remove excess dye and intracellular calcium mobilization, [Ca^2+]i were measured using a Fluorometric Imaging Plate Reader (FLIPR-96, Molecular Devices, Menlo Park, Calif.) as described previously (Malherbe et al., Mol. Pharmacol., 64, 823-832, 2003). Orexin A (catalog No. 1455, Toris Cookson Ltd, Bristol, UK) was used as agonist. Orexin A ([…] stock solution in DMSO) was diluted in FLIPR buffer+0.1% BSA. The EC50 and EC80 values of orexin-A were measured daily from standard agonist concentration-response curves in CHO(dHFr−)-OX1R and —OX2R cell lines. All compounds were dissolved in 100% DMSO. Inhibition curves were determined by addition of 11 concentrations (0.0001-10 μM) of inhibitory compounds and using EC80 value of orexin-A as agonist (a concentration which gave 80% of max agonist response, determined daily). The antagonists were applied 25 min (incubation at 37° C.) before the application of the agonist. Responses were measured as peak increase in fluorescence minus basal, normalized to the maximal stimulatory effect induced by EC80 value of orexin-A or orexin-B. Inhibition curves were fitted according to the Hill equation: y=100/(1+(x/IC50)^nH), where nH=slope factor using Excel-fit 4 software (Microsoft). Kb values were calculated according to the following equation Kb=IC50/(1+[A]/EC50) where A is the concentration of agonist added which is very close to agonist EC80 value, and IC50 and EC50 values were derived from the antagonist inhibition and orexin-A or B agonist curves, respectively.

Kb [µM] | Structure (SMILES)
0.0067 | CNC(=O)[C@H](N[C@@H](CCc1ccccc1)c1ccc(OC)c(OC)c1)c1ccccc1 (single isomer, unassigned) [Example 314]
0.0061 | CNC(=O)[C@H](N[C@@H](CCc1ccc(C(F)(F)F)cc1)c1sc(C)nc1C)c1ccc(F)cc1 [Example 116, (R)-2-[(S)-1-(2,4-Dimethyl-thiazol-5-yl)-3-(4-trifluoromethyl-phenyl)-propylamino]-2-(4-fluoro-phenyl)-N-methyl-acetamide]
0.0117 | CNC(=O)[C@H](N[C@@H](CCc1ccc(C(F)(F)F)nc1)c1ccc(F)c(OC)c1)c1ccc(Cl)cc1 (racemic) [Example 230, (S,R)-2-(4-Chloro-phenyl)-2-[(R,S)-1-(4-fluoro-3-methoxy-phenyl)-3-(6-trifluoromethyl-pyridin-3-yl)-propylamino]-N-methyl-acetamide]
0.0168 | CNC(=O)[C@@H](N[C@@H](CCc1ccc(C(F)(F)F)cc1)c1ccc(OC)c(OC)c1)c1ccccc1 (racemic) [Example 141, (S,R)-2-[(S,R)-1-(3,4-Dimethoxy-phenyl)-3-(4-trifluoromethyl-phenyl)-propylamino]-N-methyl-2-phenyl-acetamide]
0.0195 | CNC(=O)[C@H](N[C@H](CCc1ccc(C(F)(F)F)nc1)c1cccc(OC(F)(F)F)c1)c1ccccc1 (racemic) [Example 226, (S,R)—N-Methyl-2-phenyl-2-[(S,R)-1-(3-trifluoromethoxy-phenyl)-3-(6-trifluoromethyl-pyridin-3-yl)-propylamino]-acetamide]
0.0057 | Cc1cc([C@H](CCc2ccc(C(F)(F)F)nc2)N[C@@H](C(N)=O)c2ccccc2)ccc1F [Example 353, (R)-2-[(S)-1-(4-Fluoro-3-methyl-phenyl)-3-(6-trifluoromethyl-pyridin-3-yl)-propylamino]-2-phenyl-acetamide]
0.0028 | CNC(=O)[C@H](N[C@@H](CCc1ccc(C(F)(F)F)nc1)c1ccc(OC)c(OC)c1)c1ccccc1 [Example 200, (R)-2-[(S)-1-(3,4-Dimethoxy-phenyl)-3-(6-trifluoromethyl-pyridin-3-yl)-propylamino]-N-methyl-2-phenyl-acetamide hydrochloride]
0.0086 | CNC(=O)[C@H](N[C@H](CCc1ccc(C(F)(F)F)cc1)c1ccc(Cl)c(OC)c1)c1ccccc1 (racemic) [Example 176, (S,R)-2-[(S,R)-1-(4-Chloro-3-methoxy-phenyl)-3-(4-trifluoromethyl-phenyl)-propylamino]-N-methyl-2-phenyl-acetamide]
0.0114 | CNC(=O)[C@H](N[C@@H](CCc1ccc(C(F)(F)F)nc1)c1ccc2c(c1)CCCC2)c1ccc(F)cc1 [Example 102, (R)-2-(4-Fluoro-phenyl)-N-methyl-2-[(S)-1-(5,6,7,8-tetrahydro-naphthalen-2-yl)-3-(6-trifluoromethyl-pyridin-3-yl)-propylamino]-acetamide]
0.0161 | CNC(=O)[C@H](N[C@@H](CCc1ccc(C(F)(F)F)cc1)c1cc(C)on1)c1ccccc1 (racemic) [Example 302, (S,R)—N-Methyl-2-[(R,S)-1-(5-methyl-isoxazol-3-yl)-3-(4-trifluoromethyl-phenyl)-propylamino]-2-phenyl-acetamide]
0.0116 | CNC(=O)[C@H](N[C@H](CCc1ccc(C(F)(F)F)cc1)c1cc(C)on1)c1ccccc1 (racemic) [Example 301, (S,R)—N-Methyl-2-[(S,R)-1-(5-methyl-isoxazol-3-yl)-3-(4-trifluoromethyl-phenyl)-propylamino]-2-phenyl-acetamide]
0.0184 | CNC(=O)[C@@](C)(N[C@@H](CCc1ccc(C(F)(F)F)cc1)c1ccc(OC)c(OC)c1)c1ccccc1 (single isomer, unassigned) [Example 29]
0.0051 | CNC(=O)[C@H](N[C@@H](CCc1ccc(C(F)(F)F)cc1)c1ccc(OC)c(OC)c1)c1ccc(Cl)cc1 [Example 94, (R)-2-(4-Chloro-phenyl)-2-[(S)-1-(3,4-dimethoxy-phenyl)-3-(4-trifluoromethyl-phenyl)-propylamino]-N-methyl-acetamide]
0.007 | CNC(=O)C(NC(CCc1ccc(C(F)(F)F)cc1)c1cc(C(C)C)no1)c1ccccc1 (centres unmarked) [Example 92, 2-[1-(3-Isopropyl-isoxazol-5-yl)-3-(4-trifluoromethyl-phenyl)-propylamino]-N-methyl-2-phenyl-acetamide]
0.013 | CNC(=O)[C@H](N[C@@H](CCc1ccc(C(F)(F)F)nc1)c1ccc(OC(F)F)c(OC)c1)c1ccc(Cl)cc1 (racemic) [Example 234, (S,R)-2-(4-Chloro-phenyl)-2-[(R,S)-1-(4-difluoromethoxy-3-methoxy-phenyl)-3-(6-trifluoromethyl-pyridin-3-yl)-propylamino]-N-methyl-acetamide]
0.0096 | CNC(=O)[C@H](N[C@@H](CCc1ccc(C(F)(F)F)cc1)c1cc(OC)ccn1)c1ccccc1 (racemic) [Example 210, (S,R)-2-[(R,S)-1-(4-Methoxy-pyridin-2-yl)-3-(4-trifluoromethyl-phenyl)-propylamino]-N-methyl-2-phenyl-acetamide]
0.0145 | CNC(=O)[C@H](N[C@@H](CCc1ccc(C(F)(F)F)nc1)c1ccc(Cl)c(C)c1)c1ccccc1 (racemic) [Example 244, (S,R)-2-[(R,S)-1-(4-Chloro-3-methyl-phenyl)-3-(6-trifluoromethyl-pyridin-3-yl)-propylamino]-N-methyl-2-phenyl-acetamide]
0.01 | CNC(=O)[C@H](N[C@@H](CCc1ccc(C(F)(F)F)nc1)c1ccc(F)c(C)c1)c1ccc(C)cc1 (racemic) [Example 334, (R,S)-2-[(S,R)-1-(4-Fluoro-3-methyl-phenyl)-3-(6-trifluoromethyl-pyridin-3-yl)-propylamino]-N-methyl-2-p-tolyl-acetamide]
0.0114 | CNC(=O)[C@H](N[C@@H](CCc1ccc(C(F)(F)F)cc1)c1ccc2c(c1)OCCN2C)c1ccccc1 [Example 115, (R)—N-Methyl-2-[(S)-1-(4-methyl-3,4-dihydro-2H-benzo[1,4]oxazin-7-yl)-3-(4-trifluoromethyl-phenyl)-propylamino]-2-phenyl-acetamide]
0.0015 | CNC(=O)[C@H](N[C@@H](CCc1ccc(C(F)(F)F)nc1)c1ccc(Cl)c(OC)c1)c1ccc(Cl)cc1 (racemic) [Example 220, (S,R)-2-[(R,S)-1-(4-Chloro-3-methoxy-phenyl)-3-(6-trifluoromethyl-pyridin-3-yl)-propylamino]-2-(4-chloro-phenyl)-N-methyl-acetamide]
0.0102 | CNC(=O)C(NC(CCc1ccc(C(F)(F)F)nc1)c1ccc(OC(F)F)c(OC(F)F)c1)c1ccccc1 (mixture of isomers) [Example 263, 2-[1-(3,4-Bis-difluoromethoxy-phenyl)-3-(6-trifluoromethyl-pyridin-3-yl)-propylamino]-N-methyl-2-phenyl-acetamide]
0.0536 | CNC(=O)[C@H](N[C@H](CCc1ccc(C(F)(F)F)cc1)c1ccc(OC(F)F)c(OC(F)F)c1)c1ccccc1 (racemic) [Example 290, (S,R)-2-[(S,R)-1-(3,4-Bis-difluoromethoxy-phenyl)-3-(4-trifluoromethyl-phenyl)-propylamino]-N-methyl-2-phenyl-acetamide]
0.0175 | CNC(=O)[C@H](N[C@@H](CCc1ccc(Cl)nc1)c1ccc(F)c(C)c1)c1ccccc1 (racemic) [Example 266, (S,R)-2-[(R,S)-3-(6-Chloro-pyridin-3-yl)-1-(4-fluoro-3-methyl-phenyl)-propylamino]-N-methyl-2-phenyl-acetamide]
